Reference: patent US11535630B2, “Apelin receptor (APJ) agonists and uses thereof” (Research Triangle Institute, priority 2015, dated 2022)

The molecules below were run against T1, apelin receptor (APJ) (Homo sapiens, UniProt P35414) (assay: In vitro apelin agonist activity (methods of Giddings et al., Apelin-13 as positive control)). Settings: EC50 (nM) Ave, in vitro apelin agonist activity, methods of Giddings et al., Apelin-13 as positive control.
T1 sequence (P35414 1-380): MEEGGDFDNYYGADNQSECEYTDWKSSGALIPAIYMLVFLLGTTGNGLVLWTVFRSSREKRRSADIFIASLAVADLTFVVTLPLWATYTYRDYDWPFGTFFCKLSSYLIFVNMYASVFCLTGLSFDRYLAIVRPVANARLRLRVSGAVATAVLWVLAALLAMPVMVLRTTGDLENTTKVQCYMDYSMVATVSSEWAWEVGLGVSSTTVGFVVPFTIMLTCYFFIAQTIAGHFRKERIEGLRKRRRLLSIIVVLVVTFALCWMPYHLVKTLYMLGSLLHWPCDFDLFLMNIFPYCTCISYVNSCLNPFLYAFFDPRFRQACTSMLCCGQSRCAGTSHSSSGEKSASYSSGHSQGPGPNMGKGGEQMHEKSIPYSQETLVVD
Type: cell-based
Description: Characterization of the Apelin Agonist Activity of the Compounds
1:39-47, the contents of which are hereby incorporated by reference in its entirety. Using the methods described in Giddings et al. and Apelin-13 as a positive control.
Work on `CN(C[C@@H](CC(=O)NC1CCC1)NC(=O)c1cc(-c2ccccc2C(F)(F)F)n(C2CCCC2)n1)C1CCCCC1` [compound 547] yielded an EC50 of 5120 nM. In the case of `COc1cccc(OC)c1-c1cc(C(=O)N[C@@H](CCc2ccccc2)C(=O)O)nn1CC(C)C` [compound 311, (2S)-2-{[5-(2,6-dimethoxyphenyl)-1-(2-methylpropyl)-1H-pyrazol-3-yl]formamido}-4-phenylbutanoic acid], the EC50 was > 10000 nM. With `O=C(O)C[C@H](CCN1CC(F)(F)C(F)(F)C(F)(F)C1)NC(=O)c1cc(-c2ccccc2C(F)(F)F)n(C2CCCC2)n1` [compound 566, (3S)-3-({1-cyclopentyl-5-[2-(trifluoromethyl)phenyl]-1H-pyrazol-3-yl}formamido)-5-(3,3,4,4,5,5-hexafluoropiperidin-1-yl)pentanoic acid] the EC50 was 3050 nM.

Same assay, conditions: in vitro apelin agonist activity, methods of Giddings et al., Apelin-13 as positive control; read-out: EC50 (nM) Ave
In the case of `O=C(C[C@H](CCN1CCCCC1)NC(=O)c1cc(-c2cccs2)n(C2CCCC2)n1)NC1CCC1` [compound 362, (3S)-N-cyclobutyl-3-{[1-cyclopentyl-5-(thiophen-2-yl)-1H-pyrazol-3-yl]formamido}-5-(piperidin-1-yl)pentanamide], the EC50 was 5860 nM. With `COc1cccc(F)c1-c1cc(C(=O)N[C@@H](CCN2CCCCC2)CC(=O)NC2CCC2)nn1C1CCCC1` [compound 372, (3S)-N-cyclobutyl-3-{[1-cyclopentyl-5-(2-fluoro-6-methoxyphenyl)-1H-pyrazol-3-yl]formamido}-5-(piperidin-1-yl)pentanamide] the EC50 was 90 nM. For `O=C(O)C[C@@H](CCN1CCCC(F)(F)C1)NC(=O)c1cc(-c2ccccc2C(F)(F)F)n(C2CCCC2)n1` [compound 579, (3R)-3-({1-cyclopentyl-5-[2-(trifluoromethyl)phenyl]-1H-pyrazol-3-yl}formamido)-5-(3,3-difluoropiperidin-1-yl)pentanoic acid], the EC50 was 1870 nM. `O=C(O)C[C@H](CCN1C[C@H](F)[C@@H](F)C1)NC(=O)c1cc(-c2ccccc2C(F)(F)F)n(C2CCCC2)n1` [compound 582, (3S)-3-({1-cyclopentyl-5-[2-(trifluoromethyl)phenyl]-1H-pyrazol-3-yl}formamido)-5-[(3S,4S)-3,4-difluoropyrrolidin-1-yl]pentanoic acid] was tested, and the EC50 was 109 nM. Work on `COc1cccc(OC)c1-c1cc(C(=O)N[C@@H](CCN2CCCCCC2)CC(=O)NC2CCC2)nn1C1CCCC1` [compound 324, (3S)-5-(azepan-1-yl)-N-cyclobutyl-3-{[1-cyclopentyl-5-(2,6-dimethoxyphenyl)-1H-pyrazol-3-yl]formamido}pentanamide] yielded an EC50 of 107 nM. With `COc1cccc(OC)c1-c1cc(C(=O)N[C@@H](CCN2CCCC2)CC(=O)OC(C)(C)C)nn1C1CCCC1` [compound 316, tert-butyl (3S)-3-{[1-cyclopentyl-5-(2,6-dimethoxyphenyl)-1H-pyrazol-3-yl]formamido}-5-(pyrrolidin-1-yl)pentanoate] the EC50 was > 10000 nM. In the case of `COc1cccc(OC)c1-c1cc(C(=O)N[C@H](CC(=O)Nc2nccs2)Cc2ccccc2)nn1C1CCCC1` [compound 402, (3S)-3-{[1-cyclopentyl-5-(2,6-dimethoxyphenyl)-1H-pyrazol-3-yl]formamido}-4-phenyl-N-(1,3-thiazol-2-yl)butanamide], the EC50 was 203 nM. For `CC(C)CN(C)CC[C@@H](CC(=O)NC1CCC1)NC(=O)c1cc(-c2ccccc2C(F)(F)F)n(C2CCCC2)n1` [compound 493, (3S)-N-cyclobutyl-3-({1-cyclopentyl-5-[2-(trifluoromethyl)phenyl]-1H-pyrazol-3-yl}formamido)-5-[methyl(2-methylpropyl)amino]pentanamide], the EC50 was 24 nM. For `COc1cccc(OC)c1-c1cc(C(=O)N[C@@H](CCN2CCCCC2)CC(=O)NC2CCC2)nn1C1CCCCC1C` (stereo partly drawn) [compound 356, (3S)-N-cyclobutyl-3-{[5-(2,6-dimethoxyphenyl)-1-(2-methylcyclohexyl)-1H-pyrazol-3-yl]formamido}-5-(piperidin-1-yl)pentanamide], the EC50 was > 10000 nM. `CC(F)(F)c1ccccc1-c1cc(C(=O)N[C@@H](CCN2CCCC(F)(F)C2)CC(=O)O)nn1C1CCCC1` [compound 432, (3S)-3-({1-cyclopentyl-5-[2-(1,1-difluoroethyl)phenyl]-1H-pyrazol-3-yl}formamido)-5-(3,3-difluoropiperidin-1-yl)pentanoic acid] gave an EC50 of 16 nM. `Cc1cnc(NC(=O)C[C@H](CCN2CCC(F)(F)CC2)NC(=O)c2cc(-c3ccccc3C(F)(F)F)n(C3CCCC3)n2)s1` [compound 436, (3S)-3-({1-cyclopentyl-5-[2-(trifluoromethyl)phenyl]-1H-pyrazol-3-yl]formamido)-5-(4,4-difluoropiperidin-1-yl)-N-(5-methyl-1,3-thiazol-2-yl)pentanamide] was tested, and the EC50 was 58 nM. Molecule `CN(C(=O)C[C@H](CCN1CCCC(F)(F)C1)NC(=O)c1cc(-c2ccccc2C(F)(F)F)n(C2CCCC2)n1)c1ncco1` [compound 451, (3S)-3-({1-cyclopentyl-5-[2-(trifluoromethyl)phenyl]-1H-pyrazol-3-yl}formamido)-5-(3,3-difluoropiperidin-1-yl)-N-methyl-N-(1,3-oxazol-2-yl)pentanamide] has an EC50 of 27 nM. Molecule `CN(C[C@@H](CC(=O)O)NC(=O)c1cc(-c2ccccc2C(F)(F)F)n(C2CCCC2)n1)C1CCCCC1` [compound 533, (3R)-4-[cyclohexyl(methy)amino1]-3-({1-cyclopentyl-5-[2-(trifluoromethyl)phenyl]-1H-pyrazol-3-yl}formamido)butanoic acid] has an EC50 of 822 nM. `CCc1ccccc1-c1cc(C(=O)N[C@@H](CCN2CCCC(F)(F)C2)CC(=O)NC2CCC2)nn1C1CCCC1` [compound 412, (3S)-N-cyclobutyl-3-{[1-cyclopentyl-5-(2-ethylphenyl)-1H-pyrazol-3-yl]formamido}-5-(3,3-difluoropiperidin-1-yl)pentanamide] was tested, and the EC50 was 5 nM. `CCN(C(=O)c1cc(-c2c(F)cccc2OC)n(C2CCCC2)n1)[C@@H](CCN1CCCCC1)CC(=O)NC1CCC1` [compound 345, (3S)-N-cyclobutyl-3-{1-[1-cyclopentyl-5-(2-fluoro-6-methoxyphenyl)-1H-pyrazol-3-yl]-N-ethylformamido}-5-(piperidin-1-yl)pentanamide] was tested, and the EC50 was > 10000 nM. `O=C(O)C[C@H](CCN1C2CCC1CC(F)(F)C2)NC(=O)c1cc(-c2ccccc2C(F)(F)F)n(C2CCCC2)n1` [compound 602, (3S)-3-({1-cyclopentyl-5-[2-(trifluoromethyl)phenyl]-1H-pyrazol-3-yl}formamido)-5-{3,3-difluoro-8-azabicyclo[3.2.1]octan-8-yl}pentanoic acid] showed an EC50 of 346 nM. For `COc1cccc(OC)c1-c1cc(C(=O)N[C@@H](CCN2C3CCC2CC3)CC(=O)OC(C)(C)C)nn1C1CCCC1` [compound 320, tert-butyl (3S)-5-{7-azabicyclo[2.2.]heptan-7-yl}-3-{[1-cyclopentyl-5-(2,6-dimethoxyphenyl)-1H-pyrazol-3-yl]formamido}pentanoate], the EC50 was > 10000 nM. For `CC(C)C[C@@H](CC(=O)NCc1ccccc1)NC(=O)c1cc(-c2ccccc2C(F)(F)F)n(C2CCCC2)n1` [compound 441, (3S)-N-benzyl-3-({1-cyclopentyl-5-[2-(trifluoromethyl)phenyl]-1H-pyrazol-3-yl}formamido)-5-methylhexanamide], the EC50 was > 10000 nM. `CC1(NC(=O)C[C@H](CC(=O)N2CCCCC2)NC(=O)c2cc(-c3ccccc3C(F)(F)F)n(C3CCCC3)n2)COC1` [compound 550, (3R)-3-({1-cyclopentyl-5-[2-(trifluoromethyl)phenyl]-1H-pyrazol-3-yl}formamido)-N-(3-methyloxetan-3-yl)-5-oxo-5-(piperidin-1-yl)pentanamide] gave an EC50 of 8680 nM. For `CS(=O)(=O)c1ccccc1-c1cc(C(=O)N[C@@H](CCN2CCCCC2)CC(=O)NC2CCC2)nn1C1CCCC1` [compound 367, (3S)-N-cyclobutyl-3-{[1-cyclopentyl-5-(2-methanesulfonylphenyl)-1H-pyrazol-3-yl]formamido}-5-(piperidin-1-yl)pentanamide], the EC50 was 2970 nM. With `O=C(C[C@H](CCN1CCCC(F)(F)C1)NC(=O)c1cc(-c2cccnc2Cl)n(C2CCCC2)n1)NC1CCC1` [compound 469, (3S)-3-{[5-(2-chloropyridin-3-yl)-1-cyclopentyl-1H-pyrazol-3-yl]formamido}-N-cyclobutyl-5-(3,3-difluoropiperidin-1-yl)pentanamide] the EC50 was 133 nM. Molecule `O=C(C[C@H](CC(=O)N1CCCCC1)NC(=O)c1cc(-c2ccccc2C(F)(F)F)n(C2CCCC2)n1)NC1CCC1` [compound 514, (3R)-N-cyclobutyl-3-({1-cyclopentyl-5-[2-(trifluoromethyl)phenyl]-1H-pyrazol-3-yl}formamido)-5-oxo-5-(piperidin-1-yl)pentanamide] has an EC50 of 79 nM. `C[C@H](C[C@@H](CC(=O)O)NC(=O)c1cc(-c2ccccc2C(C)(F)F)n(C2CCCC2)n1)N1C[C@@H](F)[C@H](F)C1` (mixture of isomers) [compound 599, (3S,5R)-3-({1-cyclopentyl-5-[2-(1,1-difluoroethyl)phenyl]-1H-pyrazol-3-yl}formamido)-5-[trans-3,4-difluoropyrrolidin-1-yl]hexanoic acid] gave an EC50 of 24 nM. `O=C(O)C[C@H](CCN1CC[C@@H](F)[C@@H](F)C1)NC(=O)c1cc(-c2ccccc2C(F)(F)F)n(C2CCCC2)n1` [compound 610] gave an EC50 of 43 nM.
